In ChEMBL document CHEMBL1201861, “Genomics of Drug Sensitity in Cancer screening data, Wellcome Trust Sanger Institute”:
pIC50: −log10 of the molar value.

These compounds were tested on LB771-HNC (assay: cells). Details: Homo sapiens, LB771-HNC.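 Note: growth inhibition of LB771-HNC human cells, read out with a cell viability assay.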
Assay type: functional, cell-based, Homo sapiens
Description: SANGER: Inhibition of human LB771-HNC cell growth in a cell viability assay.
For `Cc1cn(-c2cc(NC(=O)c3ccc(C)c(Nc4nccc(-c5cccnc5)n4)c3)cc(C(F)(F)F)c2)cn1` [NILOTINIB], the pIC50 was < 5.70.

Each compound was assayed on HCE-T (assay: cells). Details: Homo sapiens, HCE-T.
Assay type: functional, cell-based, Homo sapiens
Description: SANGER: Inhibition of human HCE-T cell growth in a cell viability assay.
In the case of `Cc1cn(-c2cc(NC(=O)c3ccc(C)c(Nc4nccc(-c5cccnc5)n4)c3)cc(C(F)(F)F)c2)cn1` [NILOTINIB], the pIC50 was < 5.70.

Each compound was assayed on KALS-1 (assay: cells). Details: Homo sapiens, KALS-1.
Assay type: functional, cell-based, Homo sapiens
Description: SANGER: Inhibition of human KALS-1 cell growth in a cell viability assay.
In the case of `Cc1cn(-c2cc(NC(=O)c3ccc(C)c(Nc4nccc(-c5cccnc5)n4)c3)cc(C(F)(F)F)c2)cn1` [NILOTINIB], the pIC50 was < 5.70.

What follows are compounds tested on ALL-PO (assay: cells). Details: Homo sapiens, ALL-PO.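 Note: growth inhibition of ALL-PO cells, read out by a cell viability assay.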
Assay type: functional, cell-based, Homo sapiens
Description: SANGER: Inhibition of human ALL-PO cell growth in a cell viability assay.
`Cc1cn(-c2cc(NC(=O)c3ccc(C)c(Nc4nccc(-c5cccnc5)n4)c3)cc(C(F)(F)F)c2)cn1` [NILOTINIB] was tested, and the pIC50 was < 5.70.

Each compound was assayed on P30-OHK (assay: cells). Details: Homo sapiens, P30-OHK.
Assay type: functional, cell-based, Homo sapiens
Description: SANGER: Inhibition of human P30-OHK cell growth in a cell viability assay.
For `Cc1cn(-c2cc(NC(=O)c3ccc(C)c(Nc4nccc(-c5cccnc5)n4)c3)cc(C(F)(F)F)c2)cn1` [NILOTINIB], the pIC50 was < 5.70.

The compounds below were run on LB831-BLC (assay: cells). Details: Homo sapiens, LB831-BLC.
Assay type: functional, cell-based, Homo sapiens
Description: SANGER: Inhibition of human LB831-BLC cell growth in a cell viability assay.
`Cc1cn(-c2cc(NC(=O)c3ccc(C)c(Nc4nccc(-c5cccnc5)n4)c3)cc(C(F)(F)F)c2)cn1` [NILOTINIB] was tested, and the pIC50 was < 5.70.

The compounds below were run on LS-513 (assay: cells). Details: Homo sapiens, LS-513.
Assay type: functional, cell-based, Homo sapiens
Description: SANGER: Inhibition of human LS-513 cell growth in a cell viability assay.
For `Cc1cn(-c2cc(NC(=O)c3ccc(C)c(Nc4nccc(-c5cccnc5)n4)c3)cc(C(F)(F)F)c2)cn1` [NILOTINIB], the pIC50 was < 5.70.

Each compound was assayed on BV-173 (assay: cells). Details: Homo sapiens, BV-173.
Assay type: functional, cell-based, Homo sapiens
Description: SANGER: Inhibition of human BV-173 cell growth in a cell viability assay.
Compound `Cc1cn(-c2cc(NC(=O)c3ccc(C)c(Nc4nccc(-c5cccnc5)n4)c3)cc(C(F)(F)F)c2)cn1` [NILOTINIB] has a pIC50 of 7.96.

What follows are compounds tested on NB17 (assay: cells). Details: Homo sapiens, NB17.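 Note: growth inhibition of NB17 cells, read out with a cell viability assay.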
Assay type: functional, cell-based, Homo sapiens
Description: SANGER: Inhibition of human NB17 cell growth in a cell viability assay.
With `Cc1cn(-c2cc(NC(=O)c3ccc(C)c(Nc4nccc(-c5cccnc5)n4)c3)cc(C(F)(F)F)c2)cn1` [NILOTINIB] the pIC50 was < 5.70.

Each compound was assayed on LAMA-84 (assay: cells). Details: Homo sapiens, LAMA-84.
Assay type: functional, cell-based, Homo sapiens
Description: SANGER: Inhibition of human LAMA-84 cell growth in a cell viability assay.
For `Cc1cn(-c2cc(NC(=O)c3ccc(C)c(Nc4nccc(-c5cccnc5)n4)c3)cc(C(F)(F)F)c2)cn1` [NILOTINIB], the pIC50 was 8.31.

What follows are compounds tested on OMC-1 (assay: cells). Details: Homo sapiens, OMC-1.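 Note: growth inhibition of the OMC-1 cell line, measured by a cell viability assay.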
Assay type: functional, cell-based, Homo sapiens
Description: SANGER: Inhibition of human OMC-1 cell growth in a cell viability assay.
For `Cc1cn(-c2cc(NC(=O)c3ccc(C)c(Nc4nccc(-c5cccnc5)n4)c3)cc(C(F)(F)F)c2)cn1` [NILOTINIB], the pIC50 was < 5.70.

The compounds below were run on D-502MG (assay: cells). Details: Homo sapiens, D-502MG.
Assay type: functional, cell-based, Homo sapiens
Description: SANGER: Inhibition of human D-502MG cell growth in a cell viability assay.
For `Cc1cn(-c2cc(NC(=O)c3ccc(C)c(Nc4nccc(-c5cccnc5)n4)c3)cc(C(F)(F)F)c2)cn1` [NILOTINIB], the pIC50 was < 5.70.

Each compound was assayed on EM-2 (assay: cells). Details: Homo sapiens, EM-2.
Assay type: functional, cell-based, Homo sapiens
Description: SANGER: Inhibition of human EM-2 cell growth in a cell viability assay.
For `Cc1cn(-c2cc(NC(=O)c3ccc(C)c(Nc4nccc(-c5cccnc5)n4)c3)cc(C(F)(F)F)c2)cn1` [NILOTINIB], the pIC50 was 8.39.

What follows are compounds tested on MV4-11 (assay: cells). Details: Homo sapiens, MV4-11.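 Note: cell viability readout measuring growth inhibition of human MV-4-11 cells.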
Assay type: functional, cell-based, Homo sapiens, MV-4-11
Description: SANGER: Inhibition of human MV-4-11 cell growth in a cell viability assay.
In the case of `Cc1cn(-c2cc(NC(=O)c3ccc(C)c(Nc4nccc(-c5cccnc5)n4)c3)cc(C(F)(F)F)c2)cn1` [NILOTINIB], the pIC50 was < 5.70.

The compounds below were run on DEL (assay: cells). Details: Homo sapiens, DEL.
Assay type: functional, cell-based, Homo sapiens
Description: SANGER: Inhibition of human DEL cell growth in a cell viability assay.
For `Cc1cn(-c2cc(NC(=O)c3ccc(C)c(Nc4nccc(-c5cccnc5)n4)c3)cc(C(F)(F)F)c2)cn1` [NILOTINIB], the pIC50 was < 5.70.

These compounds were tested on SK-N-DZ (assay: cells). Details: Homo sapiens, SK-N-DZ.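 Note: growth inhibition of the cancer cell line, read out through a viability assay.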
Assay type: functional, cell-based, Homo sapiens
Description: SANGER: Inhibition of human SK-N-DZ cell growth in a cell viability assay.
In the case of `Cc1cn(-c2cc(NC(=O)c3ccc(C)c(Nc4nccc(-c5cccnc5)n4)c3)cc(C(F)(F)F)c2)cn1` [NILOTINIB], the pIC50 was < 5.70.

These compounds were tested on LS-411N (assay: cells). Details: Homo sapiens, LS-411N.
Assay type: functional, cell-based, Homo sapiens
In the case of `Cc1cn(-c2cc(NC(=O)c3ccc(C)c(Nc4nccc(-c5cccnc5)n4)c3)cc(C(F)(F)F)c2)cn1` [NILOTINIB], the pIC50 was < 5.70.

These compounds were tested on HCC 2998 (assay: cells). Details: Homo sapiens, HCC 2998.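 Note: growth inhibition of human HCC2998 cells, measured with a cell viability read-out.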
Assay type: functional, cell-based, Homo sapiens
Description: SANGER: Inhibition of human HCC2998 cell growth in a cell viability assay.
For `Cc1cn(-c2cc(NC(=O)c3ccc(C)c(Nc4nccc(-c5cccnc5)n4)c3)cc(C(F)(F)F)c2)cn1` [NILOTINIB], the pIC50 was < 5.70.

The compounds below were run on KNS-42 (assay: cells). Details: Homo sapiens, KNS-42.
Assay type: functional, cell-based, Homo sapiens
Description: SANGER: Inhibition of human KNS-42 cell growth in a cell viability assay.
In the case of `Cc1cn(-c2cc(NC(=O)c3ccc(C)c(Nc4nccc(-c5cccnc5)n4)c3)cc(C(F)(F)F)c2)cn1` [NILOTINIB], the pIC50 was < 5.70.

Each compound was assayed on JVM-2 (assay: cells). Details: Homo sapiens, JVM-2.
Assay type: functional, cell-based, Homo sapiens
Description: SANGER: Inhibition of human JVM-2 cell growth in a cell viability assay.
For `Cc1cn(-c2cc(NC(=O)c3ccc(C)c(Nc4nccc(-c5cccnc5)n4)c3)cc(C(F)(F)F)c2)cn1` [NILOTINIB], the pIC50 was < 5.70.

The compounds below were run on SH-4 (assay: cells). Details: Homo sapiens, SH-4.
Assay type: functional, cell-based, Homo sapiens
Description: SANGER: Inhibition of human SH-4 cell growth in a cell viability assay.
For `Cc1cn(-c2cc(NC(=O)c3ccc(C)c(Nc4nccc(-c5cccnc5)n4)c3)cc(C(F)(F)F)c2)cn1` [NILOTINIB], the pIC50 was < 5.70.

Each compound was assayed on SNU-C2B (assay: cells). Details: Homo sapiens, SNU-C2B.
Assay type: functional, cell-based, Homo sapiens
Description: SANGER: Inhibition of human SNU-C2B cell growth in a cell viability assay.
In the case of `Cc1cn(-c2cc(NC(=O)c3ccc(C)c(Nc4nccc(-c5cccnc5)n4)c3)cc(C(F)(F)F)c2)cn1` [NILOTINIB], the pIC50 was < 5.70.

What follows are compounds tested on KARPAS-45 (assay: cells). Details: Homo sapiens, KARPAS-45.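 Note: inhibition of cell line growth, read out through a viability assay.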
Assay type: functional, cell-based, Homo sapiens
Description: SANGER: Inhibition of human KARPAS-45 cell growth in a cell viability assay.
With `Cc1cn(-c2cc(NC(=O)c3ccc(C)c(Nc4nccc(-c5cccnc5)n4)c3)cc(C(F)(F)F)c2)cn1` [NILOTINIB] the pIC50 was < 5.70.

These compounds were tested on NCI-N87 (assay: cells). Details: Homo sapiens, NCI-N87.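 Note: growth inhibition of human NCI-N87 cells, read out with a cell viability assay.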
Assay type: functional, cell-based, Homo sapiens
Description: SANGER: Inhibition of human NCI-N87 cell growth in a cell viability assay.
`Cc1cn(-c2cc(NC(=O)c3ccc(C)c(Nc4nccc(-c5cccnc5)n4)c3)cc(C(F)(F)F)c2)cn1` [NILOTINIB] was tested, and the pIC50 was < 5.70.

Each compound was assayed on MN-60 (assay: cells). Details: Homo sapiens, MN-60.
Assay type: functional, cell-based, Homo sapiens
Description: SANGER: Inhibition of human MN-60 cell growth in a cell viability assay.
`Cc1cn(-c2cc(NC(=O)c3ccc(C)c(Nc4nccc(-c5cccnc5)n4)c3)cc(C(F)(F)F)c2)cn1` [NILOTINIB] was tested, and the pIC50 was < 5.70.
